IC50 data for five molecules are collected here from ChEMBL document CHEMBL1212870, “Concise synthesis of 5,6-dihydrovaltrate leading to enhanced Rev-export inhibitory congener” (Bioorg Med Chem, 2010).

A short description of this test: Inhibition of hemagglutininin-tagged HIV1 Rev protein nuclear export in human HeLa cells assessed as localization by indirect fluorescent antibody technique. It counts as cell-based, Human immunodeficiency virus 1.
Take `CC(=O)OCC1=CO[C@@H](OC(=O)CC(C)C)[C@H]2[C@@H]1C[C@H](OC(=O)CC(C)C)[C@]21CO1`: the half-inhibitory concentration (IC50) was determined as 4400 nM.
Take `CCCCOCC1=CO[C@@H](OC(=O)CC(C)C)[C@H]2[C@@H]1C[C@H](OC(=O)CC(C)C)[C@]21CO1`: the IC50 was 3300 nM.
In the case of `CC(=O)OCC1=CO[C@@H](OC(C)=O)[C@H]2[C@@H]1C[C@H](OC(=O)CC(C)C)[C@]21CO1` it was 1000 nM; in that of `CC(=O)OCC1=CO[C@@H](OC(=O)CC(C)C)[C@H]2[C@@H]1C[C@H](OC(C)=O)[C@]21CO1`, 2600 nM; in that of `CC(=O)OCC1=CO[C@@H](OC(=O)CC(C)C)[C@H]2C1=C[C@H](OC(=O)CC(C)C)[C@]21CO1` [VALTRATE], 2500 nM.
